This note sets out measurements from patent US20230135761A1, “TRANSGENIC PLANTS HAVING PROLONGED RIPENING AND REDUCED SUSCEPTIBILITY TO PATHOGENS” (MIGAL GALILEE RESEARCH INSTITUTE LTD, priority 2020, published 2023).

The subject of this assay is ICDH1 mRNA. Put plainly: ICDH1 mRNA levels by real time PCR in 1-MCP-treated tomato fruits. The assay is classed as in vivo, Solanum lycopersicum; cv. Micro Tom. To be noted: 1-MCP-treated vs untreated Micro-Tom tomatoes; 24 hr at 20° C.; stages MG, BRK, EO; FIG. 2. The procedure:
Tomato (Solanum lycopersicum; cv. Micro Tom) plants were grown under natural light in a climate-controlled greenhouse, at 24° C. during the day and 18° C. during the night. 1-MCP was applied using SmartFresh powder (Rohm and Haas, Philadelphia, Pa., USA) containing 0.14% 1-MCP as active ingredient, dissolved in warm water at a concentration of 2,000 nL·mL^−1 1-MCP (stock solution). Fruits were enclosed in a 30 L airtight barrel and the stock solution was injected to a final concentration of […]. Treatment duration was 24 hr at 20° C. For the control, fruits were treated identically excluding 1-MCP application (Gamrasni et al., 2017).
RNA was extracted using NucleoSpin® RNA Plant kit (Macherey-Nagel) according to the manufacturer's protocol. cDNA was prepared from 1 μg total RNA with Verso cDNA Synthesis Kit (ThermoFisher Scientific). The reaction was performed at 42° C. for 30 min. followed by inactivation at 95° C. for 2 min. […] Relative expression ratio was normalized to the S1ASR gene (Solyc04g071610) used as an internal control (Relative RNA levels were determined by the delta-delta Ct method). The significance of results (n=3) was evaluated by independent t-test at *P<0.05 using the SPSS Statistics 20 software (IBM, USA).
On the technique in general: Real-time PCR tracks product formation cycle by cycle.

For the compound `CC1=CC1` [1-MCP, 1-methylcyclopropene], the “ICDH1 mRNA production / levels” value was “reduced significantly”.
